Assays:
[1] = molecular target: Activin receptor type-1-like (Homo sapiens) (UniProt P37023); test: Binding affinity to wild-type human ACVRL1 (L164 to Q503 residues) expressed in bacterial expression system assessed as residual binding level at 1 uM by Kinomescan method relative to control
[2] = molecular target: Mitogen-activated protein kinase kinase kinase 6 (Homo sapiens) (UniProt O95382); test: Binding affinity to wild-type human partial length ASK2 (M278 to R972 residues) expressed in mammalian expression system assessed as residual binding level at 1 uM by Kinomescan method relative to control
[3] = molecular target: BMP-2-inducible protein kinase (Homo sapiens) (UniProt Q9NSY1); test: Binding affinity to wild-type human partial length BIKE (S34 to N329 residues) expressed in bacterial expression system assessed as residual binding level at 1 uM by Kinomescan method relative to control
[4] = molecular target: Serine/threonine-protein kinase BRSK1 (Homo sapiens) (UniProt Q8TDC3); test: Binding affinity to wild-type human partial length BRSK1 (M1 to E754 residues) expressed in bacterial expression system assessed as residual binding level at 1 uM by Kinomescan method relative to control
[5] = molecular target: Calcium/calmodulin-dependent protein kinase type II subunit alpha (Homo sapiens) (UniProt Q9UQM7); test: Binding affinity to wild-type human partial length CAMK2A (M1 to K328 residues) expressed in bacterial expression system assessed as residual binding level at 1 uM by Kinomescan method relative to control
[6] = molecular target: Cyclin-dependent kinase 8 (Homo sapiens) (UniProt P49336); test: Binding affinity to wild-type human partial length CDK8 (M1 to T360 residues) expressed in bacterial expression system assessed as residual binding level at 1 uM by Kinomescan method relative to control
[7] = molecular target: Cyclin-dependent kinase 9 (Homo sapiens) (UniProt P50750); test: Binding affinity to wild-type human full length CDK9 (M1 to F372 residues) expressed in bacterial expression system assessed as residual binding level at 1 uM by Kinomescan method relative to control
[8] = molecular target: Citron Rho-interacting kinase (Homo sapiens) (UniProt O14578); test: Binding affinity to wild-type human partial length CIT (M68 to E432 residues) expressed in bacterial expression system assessed as residual binding level at 1 uM by Kinomescan method relative to control
[9] = molecular target: Tyrosine-protein kinase CSK (Homo sapiens) (UniProt P41240); test: Binding affinity to wild-type human full length CSK (M1 to L450 residues) expressed in bacterial expression system assessed as residual binding level at 1 uM by Kinomescan method relative to control
[10] = molecular target: Serine/threonine-protein kinase DCLK1 (Homo sapiens) (UniProt O15075); test: Binding affinity to wild-type human partial length DCAMKL1 (L270 to A662 residues) expressed in mammalian expression system assessed as residual binding level at 1 uM by Kinomescan method relative to control
[11] = system: Epidermal growth factor receptor (Homo sapiens), P00533 [UNDEFINED MUTATION]; test: Binding affinity to human partial length EGFR L747-E749del/A750P mutant expressed in bacterial expression system assessed as residual binding level at 1 uM by Kinomescan method relative to control
[12] = molecular target: Mitogen-activated protein kinase 3 (Homo sapiens) (UniProt P27361); test: Binding affinity to wild-type human full length ERK1 (M1 to P379 residues) expressed in bacterial expression system assessed as residual binding level at 1 uM by Kinomescan method relative to control
[13] = molecular target: Tyrosine-protein kinase Fes/Fps (Homo sapiens) (UniProt P07332); test: Binding affinity to wild-type human partial length FES (I527 to R822 residues) expressed in bacterial expression system assessed as residual binding level at 1 uM by Kinomescan method relative to control
[14] = molecular target: Tyrosine-protein kinase JAK1 (Homo sapiens) (UniProt P23458); test: Binding affinity to wild-type human partial length JAK1 JH1 catalytic domain (V856 to K1154 residues) expressed in bacterial expression system assessed as residual binding level at 1 uM by Kinomescan method relative to control
[15] = molecular target: Serine/threonine-protein kinase 4 (Homo sapiens) (UniProt Q13043); test: Binding affinity to wild-type human full length MST1 (M1 to F487 residues) expressed in bacterial expression system assessed as residual binding level at 1 uM by Kinomescan method relative to control
[16] = molecular target: Mitogen-activated protein kinase 11 (Homo sapiens) (UniProt Q15759); test: Binding affinity to wild-type human full length p38-beta (M1 to Q364 residues) expressed in bacterial expression system assessed as residual binding level at 1 uM by Kinomescan method relative to control
[17] = molecular target: Cyclin-dependent kinase 18 (Homo sapiens) (UniProt Q07002); test: Binding affinity to wild-type human full length PCTK3 (M3 to F474 residues) expressed in bacterial expression system assessed as residual binding level at 1 uM by Kinomescan method relative to control
[18] = molecular target: Phosphatidylinositol 4,5-bisphosphate 3-kinase catalytic subunit delta isoform (Homo sapiens) (UniProt O00329); test: Binding affinity to wild-type human partial length PIK3CD (R108 to Q1044 residues) expressed in mammalian expression system assessed as residual binding level at 1 uM by Kinomescan method relative to control
[19] = molecular target: Serine/threonine-protein kinase pim-1 (Homo sapiens) (UniProt P11309); test: Binding affinity to wild-type human partial length PIM1 (A15 to K313 residues) expressed in bacterial expression system assessed as residual binding level at 1 uM by Kinomescan method relative to control
[20] = molecular target: Serine/threonine-protein kinase SIK3 (Homo sapiens) (UniProt Q9Y2K2); test: Binding affinity to wild-type human partial length QSK (A90 to L395 residues) expressed in mammalian expression system assessed as residual binding level at 1 uM by Kinomescan method relative to control
[21] = molecular target: Ribosomal protein S6 kinase alpha-2 (Homo sapiens) (UniProt Q15349); test: Binding affinity to wild-type human partial length C-terminal RSK3 kinase domain 2 (V403 to K700 residues) expressed in bacterial expression system assessed as residual binding level at 1 uM by Kinomescan method relative to control
[22] = molecular target: Ribosomal protein S6 kinase alpha-6 (Homo sapiens) (UniProt Q9UK32); test: Binding affinity to wild-type human partial length C-terminal RSK4 kinase domain 2 (I401 to Y711 residues) expressed in bacterial expression system assessed as residual binding level at 1 uM by Kinomescan method relative to control
[23] = molecular target: Non-receptor tyrosine-protein kinase TYK2 (Homo sapiens) (UniProt P29597); test: Binding affinity to wild-type human partial length TYK2 JH1 catalytic domain (V877 to C1187 residues) expressed in mammalian expression system assessed as residual binding level at 1 uM by Kinomescan method relative to control
[24] = molecular target: Serine/threonine-protein kinase ULK2 (Homo sapiens) (UniProt Q8IYT8); test: Binding affinity to wild-type human partial length ULK2 (M1 to S301 residues) expressed in mammalian expression system assessed as residual binding level at 1 uM by Kinomescan method relative to control

CC(C)Nc1sc(C(=O)c2ccc(Cl)s2)c(N)c1C#N
Activity [1]: 100%
Activity [2]: 100%
Activity [3]: 56%
Activity [4]: 92%
Activity [5]: 90%
Activity [6]: 84%
Activity [7]: 83%
Activity [8]: 72%
Activity [9]: 88%
Activity [10]: 100%
Activity [11]: 80%
Activity [12]: 95%
Activity [13]: 98%
Activity [14]: 100%
Activity [15]: 100%
Activity [16]: 83%
Activity [17]: 100%
Activity [18]: 78%
Activity [19]: 92%
Activity [20]: 100%
Activity [21]: 98%
Activity [22]: 90%
Activity [23]: 100%
Activity [24]: 100%

— ChEMBL document CHEMBL4330132, “5-Keto-3-cyano-2,4-diaminothiophenes as selective maternal embryonic leucine zipper kinase inhibitors” (Bioorg Med Chem Lett, 2019)
